Results published in patent publication US10899733B2, “Inhibitors of PARPs that catalyze mono-ADP-ribosylation” (OREGON HEALTH & SCIENCE UNIVERSITY, priority 2017, dated 2021).
Values joined by “and” are separate entries in the source; they are usually repeats but may differ in a detail not shown here. Equal values may be shown once.

Tests used:
[1] = target: T1, PARP11 (Homo sapiens, UniProt Q9NR21); test: Inhibition of PARP11-mediated ADP-ribosylation of SRPK2 using NAD+ (100 μM); assay type: biochemical; conditions: for IC50 / PARP11 pIC50 ± S.E.M.: ADP-ribosylation of SRPK2, NAD+ 100 μM
T1 sequence (Q9NR21 1-338): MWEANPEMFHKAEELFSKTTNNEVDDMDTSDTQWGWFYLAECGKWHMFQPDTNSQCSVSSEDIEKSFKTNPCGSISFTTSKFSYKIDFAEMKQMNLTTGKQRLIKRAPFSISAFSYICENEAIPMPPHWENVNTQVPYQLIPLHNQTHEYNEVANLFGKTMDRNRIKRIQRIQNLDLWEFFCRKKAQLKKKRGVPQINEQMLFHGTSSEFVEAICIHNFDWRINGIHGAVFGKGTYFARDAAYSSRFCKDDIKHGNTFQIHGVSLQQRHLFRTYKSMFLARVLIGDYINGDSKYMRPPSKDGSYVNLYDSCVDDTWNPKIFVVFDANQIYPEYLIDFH

[2] = target: T2, PARP10cat (Homo sapiens, UniProt Q53GL7); test: Inhibition of PARP10cat-mediated ADP-ribosylation of SRPK2 using NAD+ (100 μM); assay type: biochemical; conditions: for IC50 / PARP10cat pIC50 ± S.E.M.: ADP-ribosylation of SRPK2, NAD+ 100 μM; for PARP11/PARP10: ratio of IC50 values, PARP11 over PARP10cat; for increase in potency for PARP10 compared to comparator compound: 8 and 3 compared to unsubstituted 1, 14 compared to 3; for improvement in selectivity for PARP10 over PARP11 compared to parent compound: 12 vs 8, 14 vs 3, 20, 22 vs 16, 23, 24 vs 15
T2 sequence (Q53GL7 806-1025 limits assumed): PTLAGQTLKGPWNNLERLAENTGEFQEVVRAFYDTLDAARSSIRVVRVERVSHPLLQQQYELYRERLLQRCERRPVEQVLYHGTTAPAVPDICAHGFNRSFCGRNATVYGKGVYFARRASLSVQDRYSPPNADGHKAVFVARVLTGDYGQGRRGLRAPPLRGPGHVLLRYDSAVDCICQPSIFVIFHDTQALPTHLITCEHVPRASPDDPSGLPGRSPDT

[3] = Aqueous solubility observed when assaying; assay type: physicochemical; conditions: observed in assays

SMILES | IC50 [1] [µM] | PARP11 pIC50 ± S.E.M. [1] | selectivity for PARP10 over PARP11 [2] | IC50 [2] [µM] | PARP10cat pIC50 ± S.E.M. [2] | PARP11/PARP10 [2] | increase in potency for PARP10 compared to comparator compound [2] [fold] | decrease in potency for PARP11 compared to compound 8 [1] [fold] | improvement in selectivity for PARP10 over PARP11 compared to parent compound [2] [fold] | aqueous solubility [3] | selectivity for PARP11 over PARP10 [1] [fold]
Cc1c(-c2ccnc(Cl)c2)ccc2c1CCNC2=O [Compound 21, 6-(2-chloropyridin-4-yl)-5-methyl-3,4-dihydroisoquinolin-1(2H)-one] | 27 | 4.57 ± 0.02 | retained similar selectivity | 1.8 | 5.76 ± 0.03 | 15 |  |  |  |  | 
Cc1cccc2c1CCNC2=O [Compound 3, 5-methyl-dq] | 2.1 | 5.67 ± 0.05 | 0.24 fold | 8.6 | 5.01 ± 0.03 | 0.24 | 8 |  |  |  | 
O=C1NCCc2cc(-c3cccc(C(F)(F)F)c3)ccc21 [Compound 12] | 17.4 | 4.76 ± 0.04 | 8 fold | 2.3 | 5.65 ± 0.03 | 7.6 |  | 2 | 2 |  | 
Cc1c(-c2cccnc2)ccc2c1CCNC2=O [Compound 15, 5-methyl-6-(pyridiny-3-yl)-3,4-dihydroisoquinolin-1(2H)-one] | 30.4 | 4.52 ± 0.06 | 12 fold | 2.5 | 5.60 ± 0.04 | 12 |  |  |  | increased solubility compared to 14 | 
Cc1ccc2c(c1)CCNC2=O [Compound 6] | 34.1 | 4.47 ± 0.06 |  | 33.1 | 4.48 ± 0.04 | 1.0 |  |  |  |  | 
O=C1NCCc2c(Br)cccc21 [Compound 2] | 2.9 | 5.54 ± 0.04 |  | 10.1 | 4.99 ± 0.04 | 0.29 |  |  |  |  | 
O=C1NCCc2cc(-c3ccccc3)ccc21 [Compound 8] | 8.7 | 5.06 ± 0.03 | 4 fold | 2.5 | 5.61 ± 0.03 | 3.5 | 28 |  |  |  | 
Cc1c(-c2ccc3[nH]ccc3c2)ccc2c1CCNC2=O [Compound 17, 6-(1H-indol-5-yl)-5-methyl-3,4-dihydroisoquinolin-1(2H)-one] | 4.2 | 5.38 ± 0.04 | 4 fold | 1.1 | 5.96 ± 0.03 | 3.8 |  |  |  |  | 
Cc1c(-c2cnc3ccccc3c2)ccc2c1CCNC2=O [Compound 19, 5-methyl-6-(quinolin-3-yl)-3,4-dihydroisoquinolin-1(2H)-one] | 14 | 4.86 ± 0.04 | 8 fold | 1.8 | 5.75 ± 0.02 | 7.8 |  |  |  |  | 
Cc1c(-c2ccncc2)ccc2c1CCNC2=O [Compound 16, 5-methyl-6-(pyridiny-4-yl)-3,4-dihydroisoquinolin-1(2H)-one] | 21.2 | 4.67 ± 0.04 | 15 fold | 1.4 | 5.84 ± 0.03 | 15 |  |  |  | increased solubility compared to 14 | 
Cc1c(-c2cnc3[nH]ccc3c2)ccc2c1CCNC2=O [Compound 18, 5-methyl-6-(1H-pyrrolo[2,3-b]pyridin-5-yl)-3,4-dihydroisoquinolin-1(2H)-one] | 12 | 4.92 ± 0.05 | 17 fold | 0.71 | 6.15 ± 0.03 | 17 |  |  |  |  | 
Cc1c(-c2ccnc(F)c2)ccc2c1CCNC2=O [Compound 20, 6-(2-fluoropyridin-4-yl)-5-methyl-3,4-dihydroisoquinolin-1(2H)-one] | 44.7 | 4.35 ± 0.05 | 24 fold | 1.9 | 5.71 ± 0.03 | 24 |  |  | ~2 |  | 
O=C1NCCc2c1cccc2-c1ccccc1 [Compound 4] | 1.2 | 5.93 ± 0.04 |  | 35 | 4.46 ± 0.04 | 0.03 |  |  |  |  | 30
Cc1cccc(-c2ccc3c(c2)CCNC3=O)c1 [Compound 11] | 4.6 | 5.34 ± 0.03 |  | 2.1 | 5.67 ± 0.02 | 2.2 |  |  |  |  | 
O=C1NCCc2cc(Cc3ccccc3)ccc21 [Compound 7] | 16.7 | 4.78 ± 0.03 |  |  |  | <0.33 |  |  |  |  | 
NC(=O)c1ccc(Oc2ccc(C(N)=O)cc2)cc1 [OUL35, 4,4′-oxydibenzamide, reference compound] | 2.1 | 5.68 ± 0.03 |  |  |  |  |  |  |  |  | 
O=C1NCCc2cc(-c3cccc(Cl)c3)ccc21 [Compound 10] | 5.8 | 5.24 ± 0.03 |  | 1.1 | 5.95 ± 0.02 | 5.3 |  |  |  |  | 
Cc1c(-c2ccccc2)ccc2c1CCNC2=O [Compound 14, 5-methyl-6-phenyl-3,4-dihydroisoquinolin-1(2H)-one] | 26.4 | 4.58 ± 0.07 | 17 fold |  | 5.80 ± 0.03 | 17 | 5 |  | 70 | aqueous solubility issues at higher concentrations | 
Cc1c(-c2cncc(F)c2)ccc2c1CCNC2=O [Compound 23, 6-(5-fluoropyridin-3-yl)-5-methyl-3,4-dihydroisoquinolin-1(2H)-one] | 54.7 | 4.23 ± 0.03 | 25 fold | 2.2 | 5.66 ± 0.02 | 25 |  |  |  |  | 
Cc1c(-c2cncc(C(F)(F)F)c2)ccc2c1CCNC2=O [Compound 24, 5-methyl-6-(5-(trifluoromethyl)pyridin-3-yl)-3,4-dihydroisoquinolin-1(2H)-on] | 92.1 | 4.04 ± 0.03 | 34 fold and 35 fold |  | 5.57 ± 0.03 | 34 |  |  |  |  | 
O=C1NCCc2cc(-c3cccc(F)c3)ccc21 [Compound 9] | 6.1 | 5.22 ± 0.04 |  | 1.4 | 5.85 ± 0.03 | 4.4 |  |  |  |  | 
O=C1NCCc2cc(Br)ccc21 [Compound 5] | 13.5 | 4.87 ± 0.03 |  | 17.1 | 4.77 ± 0.03 | 0.79 |  |  |  |  | 
